Literature values as cited in patent publication US20230066280A1, “DRUG ELUTING BIOMATERIALS” (UCL BUSINESS LTD, priority 2020, published 2023).

Columns and labels:
[1] = tested on: Rho; settings: SY5YAPP, HEK 293 and PC12 cells (ref 30)

SMILES | initial loaded drug released within 24 hours (ibuprofen from EVA, previous study (ref 24)) [%] | release rate of ibuprofen from MSN (mesoporous silica nanoparticles, previous studies (ref 20)) [%] | levels of active Rho-GTP [1]
CC(C)Cc1ccc(C(C)C(=O)O)cc1 (stereo not drawn) [ibuprofen] | 50 | 96.3 | –
CSc1ccc(/C=C2/C(C)=C(CC(=O)O)c3cc(F)ccc32)cc1 [sulindac sulfide] | – | – | reduced
